Experimental findings from article PMC6368574, “Probing the Inhibition of Microtubule Affinity Regulating Kinase 4 by N-Substituted Acridones” (Scientific Reports, 2019) are described below.

One assay concerns HEK293 cells. Put plainly: MTT cell viability assay, HEK293. It is filed as cell-based. The settings on record: Homo sapiens, Table S2. How it is done: Initially, all synthesized acridone derivatives were evaluated for their cytotoxicity potential on MCF-7, HepG2 and HEK293 cell lines by MTT assay. These synthesized acridone derivatives were screened in the concentration range of 0–200 µM, for 24 and 48 h. […] It was also interesting that in the studied […] concentration range these compounds don’t show considerable cytotoxicity towards HEK293 cell lines. […] Thus, compounds 5, 7b, 7d, 7f and 7h were taken for further cell based studies such as apoptosis and reactive oxygen species (ROS) production.
To study the effect of synthesized acridone derivatives on cell viability and proliferation, a standard MTT method was carried out. Cells were plated (8000–9000/well) in a 96-well plate and incubated overnight. On the next day, cells were treated with increasing concentrations (0.1–80 μM) of synthesized acridone derivatives in a final volume of 200 µl for 48 h at 37 °C in a humidified chamber. At the end of treatment time point, 20 µl of MTT solution (from 5 mg/ml stock solution in phosphate buffer saline, pH 7.4) was added to each well and incubated further for 4–5 h at 37 °C in the CO2 incubator. After stipulated time the supernatant was aspirated and the colored formazan crystal produced as a result of MTT reduction was dissolved in 100 µl of DMSO. The absorbance (A) of colored product was then measured at 570 nm on a multiplate ELISA reader (BioRad). The percentage of viable cells was calculated and used to estimate the IC50 (50% inhibitory concentration) values for each acridone derivative. For cell proliferation studies paclitaxel has been taken as positive control.

Assay [1] deals with MCF-7 cells. Put plainly: Annexin-V apoptosis assay by flow cytometry. It is filed as cell-based, human. Particulars: IC50 concentration, 24 h, annexin-V staining. How it is done:
Evasion of apoptosis is a striking hallmark of cancerous cells, it is an essential process that regulates abnormal growth of cells, but compromised signaling helps the cancerous cells to escape apoptosis. MARK4 overexpression also supports the growth and evasion of cancerous cells. Thus, the probability of apoptosis induction by inhibiting MARK4 was studied. The MCF-7 cells were serum starved and treated with IC50 concentration of each acridone derivative for 24 h and subsequently annexin-V staining was used to assess the apoptotic potential of these compounds.
Figure 6 MARK4 inhibition by selected acridone derivatives induces apoptosis, elicited oxidative stress by inducing ROS production in MCF-7 cells. MCF-7 cells were treated with IC50 concentrations of each compound for 24 h and processed for apoptosis analysis using Annexin V-7AAD apoptosis kit by flow cytometry. (A) Quadrants showing the anti-FITC-Annexin-V stained cells after the treatment of each compound as indicated. (B) Bar graphs represents the percentage of apoptotic MCF-7 cells attained with Annexin-V for duplicate measurements ± SD. **p < 0.001, as compared to control (untreated cells). (For anticancer activities paclitaxel has been taken as positive control). (C) Histogram showing the fluorescence emission intensity of DCF as measured by flow cytometry, MCF-7 cells were treated with IC50 concentrations of each compound for 5–6 h and processed for ROS measurements using DCFDA staining and were quantified by flow cytometry. (D) Representative images of MCF-7 cells stained with DCFDA captured on fluorescence microscope (20 X original magnification) for the assessment of ROS after the treatment of respective compound and intensity of green color represents the levels of ROS.
Annexin-V staining was used to analyse the apoptotic potential of synthesized acridone derivatives as described previously[47],[48]. Briefly, MCF-7 cells were dosed with IC50 concentration of selected acridone derivative for 24 h at 37 °C. The control cells were treated with media only. After 24 h treatment, nearly 2.0–2.5 × 10^6 cells were trypsinized and collected by centrifuging the cell suspension at 1800 rpm for 4 min. Collected cells were washed two times with 5 ml of PBS. Finally, cells were stained with FITC labeled Annexin-V antibodies using FITC-Annexin-V kit according to the manufacturer’s guidelines (BD-Biosciences, USA). Approximately, 10,000 events were analyzed for each sample through flow cytometry on BD LSR II Flow Cytometry Analyzer and FlowJo.

In assay [2] the test system is MCF-7 cells. Put plainly: ROS measurement by DCFDA staining. It is filed as cell-based, human. The settings on record: IC50 dose, 5–6 h, flow cytometry. How it is done: The respiratory cycle of mitochondria is the foremost source of reactive oxygen species (ROS), and ROS has the potential to induce cell apoptosis. Thus, it was speculated that the treatment with selected acridone derivatives might lead to the production of ROS. The MCF-7 cells were treated with the IC50 dose of compounds 5, 7b, 7d, 7f and 7h for 5–6 h and ROS levels were quantified by flow cytometry using 2-dichlorofluorescein diacetate (DCFDA) staining.
Besides flow cytometry, levels of ROS were also measured by fluorescence spectroscopy, after treatment with compounds 5, 7b, 7d, 7f and 7h, DCFDA staining and imaging on a fluorescence microscope (Fig. 6D). It is easily observed in the Fig. 6D that the intensifications of green fluorescence in case of treated cells denote the higher levels of ROS.
DCF fluorescence helps to measures innumerable ROS such as H2O2 and hydroxyl radicals. That why DCFDA staining was used to quantify the reactive oxygen species (ROS) level inside the cell as described earlier[17],[41]. Briefly, the MCF-7 cells (70–80% confluent) were incubated with IC50 concentration of each compound and positive control H2O2, respectively in a 24-well culture plates. After 5–6 h incubation of cells with respective compounds, cells were gently washed with 500 μl of prewarmed (at 37 °C) Krebs Ringer buffer (20 mM HEPES, 2 mM MgSO4, 10 mM dextrose, 127 mM NaCl, 1 mM CaCl2 and 5.5 mM KCl), subsequently 10 µM DCFDA (Invitrogen Grand Island, NY) has been added to each well and incubated further for 30 min in dark at 37 °C in a humidified CO2 incubator. After 30 min incubation, the cells were collected by trypsinization and ROS levels were quantified with the help of Flow Cytometry. Nearly 10,000 events for each sample were collected on BD LSR II Flow Cytometry Analyzer, and analyzed with help of FlowJo. For intact cell imaging, cells were washed with PBS, pH 7.4 and imaged for ROS levels estimation using the DCFDA fluorescent dye. Fluorescence images were taken on Nikon-EclipseTS100 microscope.

SMILES strings stand for the structures. Entries after “also recorded” stand apart in the source; their conditions may differ. A value given as a limit tells only on which side of the number the result lay.

`Cc1ccc2c(c1)c(=O)c1ccccc1n2CC(=O)NCc1ccccc1` [Compound 7b, N-benzyl-2-(2-methyl-9-oxoacridin-10(9H)-yl)acetamide] had an IC50 with HEK293 cells of more than 200 µM. Besides, in the assay on MCF-7 cells [1], the “apoptosis induced in MCF-7 cells” value was 69.23%. In the assay on MCF-7 cells [2], the ROS levels result was “increases the production of ROS; also recorded: induce ROS to a higher extent than compound 5 and 7h”.
In turn, `COC(=O)Cn1c2ccccc2c(=O)c2cc(C)ccc21` [Compound 5, Methyl 2-(2-methyl-9-oxoacridin-10(9H)-yl)acetate] returned an IC50 with HEK293 cells of more than 200 µM. In the assay on MCF-7 cells [1], the “apoptosis induced in MCF-7 cells” value is listed as 17.91%. Further, the ROS levels result in the assay on MCF-7 cells [2] is on record as “increases the production of ROS”.
Take `COc1ccc(CNC(=O)Cn2c3ccccc3c(=O)c3cc(C)ccc32)cc1` [Compound 7d, N-(4-methoxybenzyl)-2-(2-methyl-9-oxoacridin-10(9H)-yl)acetamide]: in the assay with HEK293 cells, the IC50 is more than 200 µM. Also, in the assay with MCF-7 cells [1], the “apoptosis induced in MCF-7 cells” value was found to be 43.10%. In addition, in the assay on MCF-7 cells [2], the ROS levels entry was “increases the production of ROS; also recorded: induce ROS to a higher extent than compound 5 and 7h”.
In the case of `COc1ccccc1NC(=O)Cn1c2ccccc2c(=O)c2cc(C)ccc21` [Compound 7h, N-(2-methoxyphenyl)-2-(2-methyl-9-oxoacridin-10(9H)-yl)acetamide], in the assay with HEK293 cells, the IC50 is more than 200 µM. Also, the “apoptosis induced in MCF-7 cells” value with MCF-7 cells [1] was determined as 21.53%. In addition, in the assay with MCF-7 cells [2], the ROS levels result is recorded as “increases the production of ROS”.
On to `Cc1ccc(NC(=O)Cn2c3ccccc3c(=O)c3cc(C)ccc32)cc1` [Compound 7f, 2-(2-Methyl-9-oxoacridin-10(9H)-yl)-N-(p-tolyl)acetamide], for which the IC50 in the assay on HEK293 cells was more than 200 µM. Further, the “apoptosis induced in MCF-7 cells” value in the assay on MCF-7 cells [1] came out at 41.35%. Moreover, the ROS levels result with MCF-7 cells [2] is “increases the production of ROS; also recorded: induce ROS to a higher extent than compound 5 and 7h”.
